Experimental data: patent US11787816B2, “Chlorin compound, and preparation and use thereof” (Southwest Jiaotong University, priority 2021, dated 2023)

Columns and labels:
[1] = test system: human cervical cancer Hela cells; assay: Photosensitizer-mediated PDT, in vitro proliferation (MTT), Hela; type: cell-based; conditions: for cell viability (%): Hela; for toxicity to the cells when the drug is used alone without photodynamic treatment: summary statement for Hela, huh-7 and 4T1 cells
Description: Several kinds of tumor cells (human cervical cancer Hela cells, human hepatocellular carcinoma huh-7 cells and murine mammary carcinoma 4T1 cells) cultured in vitro from a variety of tissues were taken as cell models, so as to investigate the photodynamic effects mediated by different doses of CEFN, CEFO, Ce6 and HPPH on the three different tumor cells (n=3). The specific experimental procedures were carried out as follows.
Cells in the logarithmic growth phase were harvested and seeded in a 24-well plate. After growing to a confluence of 70-80%, the cells were randomly divided into a control group (free of drug and light irradiation), a drug group and a photodynamic group. The CEFN, CEFO, Ce6 and HPPH were added respectively in dark, and for each drug, four final concentrations 1, 2, 5, and 10 μg/mL were set with 3 replicates for each group. After the co-incubation, the groups were treated individually. Regarding the photodynamic group, the light irradiation was performed at a wavelength of 660 nm and three different light intensities, i.e., 2, 4 and 8 J/cm^2. After that, each group was digested, and were inoculated into a 96-well plate at 100 μL per well with 4 replicates for each treatment. 24 hours later, the 96-well plate was subjected to MTT assay as follows. Each well was added with 20 μL of MTT (3-4,5-dimethylthiazol-2,5-diphenyltetrazolium bromide) solution in the dark and incubated for 4 hours. The supernatant was discarded, and the residue was dissolved with 150 μL of dimethyl sulfoxide for 15 min. After that, the 96-well plate was measured by a microplate reader for the absorbance (OD value). The relative cell viability was calculated as follows: relative cell viability=OD value of experimental group/OD value of control group*100%.

[2] = test system: murine mammary carcinoma 4T1 cells; assay: Antitumor activity as photosensitizers on tumor-bearing mice (one PDT treatment); type: in vivo; conditions: for Inhibitory rate (average ± SD, %) / Tumor weight (average ± SD, g): 660 nm, 75 Joule/cm^2 6 h after dosing, 7 days after PDT; for Body weight At the begining / Body weight At the end: one PDT treatment, mice, in g (unit assumed)
Description: The murine mammary carcinoma cells (4T1 line) were subjected to adherent culture. After growing to a confluence of 70%-80%, the cells in the culture flask were routinely digested, centrifuged and counted, and then resuspended with 0.85% normal saline to a density of 1×10^7 cells/mL. The cell suspension was injected into the left lateral middle axillary subcutaneous part of […] Bal b/c healthy mice (female, aged 6-8 weeks) at 0.1 mL/mouse. When the tumor diameter, which was observed every other day, reached 0.6-0.8 cm, the mice with well-growing tumors and no ulcers on the epidermis were selected for grouped treatment.
(1) Mice with similar body weight and uniform tumor size are selected and randomly divided into 7 groups with 6 mice for each group. After inoculation for 48 h, the mice were subjected to drug administration separately from the tail vein by group.
6 h after the drug administration, the mice were fixed to expose the tumor growth site. Light irradiation was performed for 8 min, using PDT-660 photodynamic therapy equipment at a laser wavelength of 660 nm and a light dose of 75 Joule/cm^2. Then both of the mice growth and tumor growth are observed continuously. 7 days after photodynamic therapy, the animals were sacrificed. The tumor was stripped and weighed, and the body weight was recorded.

Row | Substance | cell viability (%) ([1]; 1 μg/mL, 660 nm, 2 J/cm^2) | cell viability (%) ([1]; 1 μg/mL, 660 nm, 4 J/cm^2) | cell viability (%) ([1]; 1 μg/mL, 660 nm, 8 J/cm^2) | cell viability (%) ([1]; 1 μg/mL, no light) | cell viability (%) ([1]; 2 μg/mL, 660 nm, 2 J/cm^2) | cell viability (%) ([1]; 2 μg/mL, 660 nm, 4 J/cm^2) | cell viability (%) ([1]; 2 μg/mL, 660 nm, 8 J/cm^2) | cell viability (%) ([1]; 2 μg/mL, no light) | cell viability (%) ([1]; 5 μg/mL, 660 nm, 2 J/cm^2) | cell viability (%) ([1]; 5 μg/mL, 660 nm, 4 J/cm^2) | cell viability (%) ([1]; 5 μg/mL, 660 nm, 8 J/cm^2) | cell viability (%) ([1]; 5 μg/mL, no light) | cell viability (%) ([1]; 10 μg/mL, 660 nm, 2 J/cm^2) | cell viability (%) ([1]; 10 μg/mL, 660 nm, 4 J/cm^2) | cell viability (%) ([1]; 10 μg/mL, no light) | toxicity to the cells when the drug is used alone without photodynamic treatment ([1]; no light) | Inhibitory rate (average ± SD, %) ([2]; 0.2 mg/kg tail vein) | Tumor weight (average ± SD, g) ([2]; 0.2 mg/kg tail vein) | Body weight At the begining ([2]; 0.2 mg/kg) | Body weight At the end ([2]; 0.2 mg/kg) | also measured
1 | 3-hexoxymethyl-3-devinyl-chlorin e4 disodium salt [CEFO] | 65 ± 3% | 61 ± 3% | 40 ± 2% | 101 ± 2% | 54 ± 3% | 45 ± 2% | 25 ± 2% | 107 ± 2% | 38 ± 2% | 24 ± 3% | 14 ± 4% | 109 ± 2% | 25 ± 2% | 4 ± 1% | 107 ± 2% | will not lower the cell viability | 87.0 ± 3.1% | 0.021 ± 0.005 g | 20.4 ± 0.3 | 21.5 ± 0.3 | cell viability (%) ([1]; 10 μg/mL, 660 nm, 8 J/cm^2): 3 ± 2%; Inhibitory rate (average ± SD, %) ([2]; 0.4 mg/kg tail vein): 97.5 ± 0.4%; Tumor weight (average ± SD, g) ([2]; 0.4 mg/kg tail vein): 0.004 ± 0.001 g; Body weight At the begining ([2]; 0.4 mg/kg): 20.7 ± 0.4; Body weight At the end ([2]; 0.4 mg/kg): 21.8 ± 0.4
2 | 3-n-hexylaminomethyl-3-devinyl-chlorin e4 disodium salt [CEFN] | 98 ± 3% | 99 ± 1% | 78 ± 3% | 103 ± 2% | 78 ± 3% | 62 ± 2% | 51 ± 3% | 99 ± 2% | 43 ± 3% | 32 ± 4% | 21 ± 3% | 106 ± 2% | 36 ± 3% | 17 ± 2% | 104 ± 2% | will not lower the cell viability | 68.5 ± 1.7% | 0.051 ± 0.003 g | 20.6 ± 0.6 | 21.7 ± 0.5 | Inhibitory rate (average ± SD, %) ([2]; 0.4 mg/kg tail vein): 82.7 ± 3.7%; Tumor weight (average ± SD, g) ([2]; 0.4 mg/kg tail vein): 0.028 ± 0.006 g; Body weight At the begining ([2]; 0.4 mg/kg): 20.5 ± 0.4; Body weight At the end ([2]; 0.4 mg/kg): 21.6 ± 0.5
